Results as given in publication PMC9954146, “Anti-Leukaemic Activity of Rilpivirine Is Mediated by Aurora A Kinase Inhibition” (Cancers, 2023).

Key:
Assay in all cases: Kinase panel
Type in all cases: biochemical
Conditions in all cases: read-out: % Residual Activity
Fes(h) = target: T1, Fes(h) (Homo sapiens, UniProt P07332)
T1 construct: purchased Eurofins (KinaseProfiler)
Method in brief: (§1)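 Cheng–Prusoff conversion of IC50 to Ki; IC50s from radioisotope-based assays at Km(ATP). Kinome-wide rilpivirine profiling.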

DCAMKL1(h) = target: T2, DCAMKL1(h) (Homo sapiens, UniProt O15075)
T2 construct: purchased Eurofins (KinaseProfiler)
Method in brief: as §1

DAPK2(h) = target: T3, DAPK2(h) (Homo sapiens, UniProt Q9UIK4)
T3 construct: purchased Eurofins (KinaseProfiler)
T3 sequence (Q9UIK4 whole entry): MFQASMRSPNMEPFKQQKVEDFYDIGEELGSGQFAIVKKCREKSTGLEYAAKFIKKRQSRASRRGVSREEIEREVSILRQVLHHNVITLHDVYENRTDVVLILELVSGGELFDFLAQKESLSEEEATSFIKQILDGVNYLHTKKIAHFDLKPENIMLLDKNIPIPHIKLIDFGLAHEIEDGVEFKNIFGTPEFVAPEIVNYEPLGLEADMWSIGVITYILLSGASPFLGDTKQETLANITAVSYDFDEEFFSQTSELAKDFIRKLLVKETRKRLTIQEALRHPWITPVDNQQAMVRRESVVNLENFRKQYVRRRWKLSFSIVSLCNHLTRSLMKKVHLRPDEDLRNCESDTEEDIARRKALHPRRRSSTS
Method in brief: as §1

c-RAF(h) = target: T4, c-RAF(h) (Homo sapiens, UniProt P04049)
T4 construct: purchased Eurofins (KinaseProfiler)
Method in brief: as §1

Flt3(h) = target: T5, Flt3(h) (Homo sapiens, UniProt P36888)
T5 construct: purchased Eurofins (KinaseProfiler)
Method in brief: as §1

CDK1/cyclinB(h) = target: T6, CDK1/cyclinB(h) (Homo sapiens, UniProt P06493)
T6 construct: purchased Eurofins (KinaseProfiler)
T6 sequence (P06493 whole entry): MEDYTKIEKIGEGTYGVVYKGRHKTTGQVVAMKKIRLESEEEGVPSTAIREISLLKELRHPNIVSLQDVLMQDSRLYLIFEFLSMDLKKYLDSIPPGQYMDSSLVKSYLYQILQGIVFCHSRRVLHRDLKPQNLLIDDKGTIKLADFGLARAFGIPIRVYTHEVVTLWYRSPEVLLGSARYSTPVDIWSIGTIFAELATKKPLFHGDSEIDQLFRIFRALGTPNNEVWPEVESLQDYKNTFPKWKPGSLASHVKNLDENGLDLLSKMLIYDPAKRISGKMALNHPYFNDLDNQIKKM
T6 sequence (P14635 whole entry partner): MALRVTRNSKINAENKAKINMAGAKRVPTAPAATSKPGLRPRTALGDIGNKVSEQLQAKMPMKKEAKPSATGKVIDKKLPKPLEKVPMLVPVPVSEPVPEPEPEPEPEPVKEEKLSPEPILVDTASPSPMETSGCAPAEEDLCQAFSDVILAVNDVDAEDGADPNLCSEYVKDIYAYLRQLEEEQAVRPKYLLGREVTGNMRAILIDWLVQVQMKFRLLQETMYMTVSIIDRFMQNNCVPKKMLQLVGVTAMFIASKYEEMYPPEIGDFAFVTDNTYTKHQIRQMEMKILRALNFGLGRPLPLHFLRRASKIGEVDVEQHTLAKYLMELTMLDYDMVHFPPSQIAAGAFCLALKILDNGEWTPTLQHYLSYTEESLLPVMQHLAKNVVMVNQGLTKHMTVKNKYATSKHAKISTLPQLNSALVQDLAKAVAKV
Method in brief: as §1

PKCε(h) = target: T7, PKCε(h) (Homo sapiens, UniProt Q02156)
T7 construct: purchased Eurofins (KinaseProfiler)
Method in brief: as §1

TSSK3(h) = target: T8, TSSK3(h) (Homo sapiens, UniProt Q96PN8)
T8 construct: purchased Eurofins (KinaseProfiler)
Method in brief: as §1

Ret(V804M)(h) = target: T9, Ret(V804M)(h) (Homo sapiens, UniProt P07949, V804M)
T9 construct: purchased Eurofins (KinaseProfiler)
Method in brief: as §1

GRK6(h) = target: T10, GRK6(h) (Homo sapiens, UniProt P43250)
T10 construct: purchased Eurofins (KinaseProfiler)
T10 sequence (P43250 whole entry): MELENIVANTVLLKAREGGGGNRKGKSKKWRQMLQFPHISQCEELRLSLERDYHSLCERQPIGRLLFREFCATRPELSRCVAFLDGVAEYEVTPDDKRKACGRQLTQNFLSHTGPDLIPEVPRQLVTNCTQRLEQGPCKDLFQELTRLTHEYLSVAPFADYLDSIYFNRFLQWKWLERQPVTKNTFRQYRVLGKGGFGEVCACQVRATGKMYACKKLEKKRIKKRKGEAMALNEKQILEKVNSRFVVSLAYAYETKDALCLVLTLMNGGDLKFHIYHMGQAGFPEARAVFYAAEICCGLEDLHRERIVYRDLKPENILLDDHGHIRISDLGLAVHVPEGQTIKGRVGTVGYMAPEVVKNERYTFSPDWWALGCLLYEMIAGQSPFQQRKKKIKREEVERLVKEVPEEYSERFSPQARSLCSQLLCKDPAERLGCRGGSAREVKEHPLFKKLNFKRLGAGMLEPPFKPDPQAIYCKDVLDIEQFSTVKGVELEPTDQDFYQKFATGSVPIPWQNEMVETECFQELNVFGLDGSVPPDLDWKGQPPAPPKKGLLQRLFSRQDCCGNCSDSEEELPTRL
Method in brief: as §1

Abl(T315I)(h) = target: T11, Abl(T315I)(h) (Homo sapiens, UniProt P00519, T315I)
T11 construct: purchased Eurofins (KinaseProfiler)
Method in brief: as §1

[1] = target: T12, PI3 Kinase (p110b/p85a)(h) (Homo sapiens, UniProt P42338)
T12 construct: purchased Eurofins (KinaseProfiler)
Method in brief: as §1

[2] = target: T13, PI3 Kinase (p110a/p65a)(m) (Mus musculus, UniProt P42337)
T13 construct: purchased Eurofins (KinaseProfiler)
Method in brief: as §1

TYK2(h) = target: T14, TYK2(h) (Homo sapiens, UniProt P29597)
T14 construct: purchased Eurofins (KinaseProfiler)
Method in brief: as §1

CDKL4(h) = target: T15, CDKL4(h) (Homo sapiens, UniProt Q5MAI5)
T15 construct: purchased Eurofins (KinaseProfiler)
T15 sequence (Q5MAI5 whole entry): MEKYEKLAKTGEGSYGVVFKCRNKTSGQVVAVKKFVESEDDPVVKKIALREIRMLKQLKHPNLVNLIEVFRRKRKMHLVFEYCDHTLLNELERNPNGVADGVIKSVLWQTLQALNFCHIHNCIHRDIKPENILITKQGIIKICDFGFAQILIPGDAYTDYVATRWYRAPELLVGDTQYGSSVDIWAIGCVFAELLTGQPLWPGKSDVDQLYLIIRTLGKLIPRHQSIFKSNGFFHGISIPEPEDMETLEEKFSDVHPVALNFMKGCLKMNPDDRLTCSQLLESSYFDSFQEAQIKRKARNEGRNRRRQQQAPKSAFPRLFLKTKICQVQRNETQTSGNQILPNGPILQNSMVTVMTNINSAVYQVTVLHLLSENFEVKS
Method in brief: as §1

CDK16/cyclinY(h) = target: T16, CDK16/cyclinY(h) (Homo sapiens, UniProt Q00536)
T16 construct: purchased Eurofins (KinaseProfiler)
Method in brief: as §1

CLK2(h) = target: T17, CLK2(h) (Homo sapiens, UniProt P49760)
T17 construct: purchased Eurofins (KinaseProfiler)
T17 sequence (P49760 whole entry): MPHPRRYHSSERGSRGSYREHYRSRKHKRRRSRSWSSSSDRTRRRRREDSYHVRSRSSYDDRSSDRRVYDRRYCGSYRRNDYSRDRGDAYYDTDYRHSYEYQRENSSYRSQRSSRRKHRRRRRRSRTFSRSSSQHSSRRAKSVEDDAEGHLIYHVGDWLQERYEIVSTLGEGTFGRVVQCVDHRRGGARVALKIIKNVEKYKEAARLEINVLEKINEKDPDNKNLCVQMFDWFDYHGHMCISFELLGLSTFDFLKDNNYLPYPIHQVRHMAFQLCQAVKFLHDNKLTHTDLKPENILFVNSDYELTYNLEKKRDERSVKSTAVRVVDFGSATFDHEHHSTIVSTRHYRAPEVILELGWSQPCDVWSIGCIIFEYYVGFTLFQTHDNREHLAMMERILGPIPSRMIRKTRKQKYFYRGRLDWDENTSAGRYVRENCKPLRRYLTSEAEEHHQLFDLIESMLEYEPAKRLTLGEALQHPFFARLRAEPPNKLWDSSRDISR
Method in brief: as §1

PDGFRβ(h) = target: T18, PDGFRβ(h) (Homo sapiens, UniProt P09619)
T18 construct: purchased Eurofins (KinaseProfiler)
T18 sequence (P09619 33-1106): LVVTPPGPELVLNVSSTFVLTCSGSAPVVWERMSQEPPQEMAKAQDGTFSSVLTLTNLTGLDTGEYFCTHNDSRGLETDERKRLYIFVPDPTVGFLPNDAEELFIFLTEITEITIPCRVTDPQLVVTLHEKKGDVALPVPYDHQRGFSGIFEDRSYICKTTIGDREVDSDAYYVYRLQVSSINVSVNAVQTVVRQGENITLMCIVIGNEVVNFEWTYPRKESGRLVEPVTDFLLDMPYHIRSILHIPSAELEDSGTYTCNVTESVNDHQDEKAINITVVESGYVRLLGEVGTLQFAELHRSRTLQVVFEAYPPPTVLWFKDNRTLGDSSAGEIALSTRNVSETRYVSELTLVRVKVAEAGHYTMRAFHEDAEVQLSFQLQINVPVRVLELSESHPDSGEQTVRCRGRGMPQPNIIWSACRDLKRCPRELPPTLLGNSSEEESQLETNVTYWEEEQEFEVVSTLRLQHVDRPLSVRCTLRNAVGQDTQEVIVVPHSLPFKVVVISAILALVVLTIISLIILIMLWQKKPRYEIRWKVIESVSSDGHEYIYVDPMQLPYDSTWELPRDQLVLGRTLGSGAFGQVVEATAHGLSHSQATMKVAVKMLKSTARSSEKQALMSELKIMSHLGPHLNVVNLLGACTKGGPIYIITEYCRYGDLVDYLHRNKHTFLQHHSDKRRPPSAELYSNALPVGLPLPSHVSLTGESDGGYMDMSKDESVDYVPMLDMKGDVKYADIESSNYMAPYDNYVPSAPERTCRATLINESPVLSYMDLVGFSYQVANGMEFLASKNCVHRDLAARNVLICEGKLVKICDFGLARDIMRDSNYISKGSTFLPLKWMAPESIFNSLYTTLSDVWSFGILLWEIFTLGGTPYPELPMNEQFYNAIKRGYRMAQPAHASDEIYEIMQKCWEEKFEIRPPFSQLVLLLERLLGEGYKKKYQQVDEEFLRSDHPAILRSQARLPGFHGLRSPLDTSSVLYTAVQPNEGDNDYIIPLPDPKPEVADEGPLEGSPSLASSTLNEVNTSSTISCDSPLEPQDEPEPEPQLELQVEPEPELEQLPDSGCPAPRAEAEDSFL
Method in brief: as §1

ChaK1(h) = target: T19, ChaK1(h) (Homo sapiens, UniProt Q96QT4)
T19 construct: purchased Eurofins (KinaseProfiler)
Method in brief: as §1

WNK4(h) = target: T20, WNK4(h) (Homo sapiens, UniProt Q96J92)
T20 construct: purchased Eurofins (KinaseProfiler)
Method in brief: as §1

IKKε(h) = target: T21, IKKε(h) (Homo sapiens, UniProt Q14164)
T21 construct: purchased Eurofins (KinaseProfiler)
Method in brief: as §1

LOK(h) = target: T22, LOK(h) (Homo sapiens, UniProt O94804)
T22 construct: purchased Eurofins (KinaseProfiler)
Method in brief: as §1

DYRK1B(h) = target: T23, DYRK1B(h) (Homo sapiens, UniProt Q9Y463)
T23 construct: purchased Eurofins (KinaseProfiler)
Method in brief: as §1

SGK2(h) = target: T24, SGK2(h) (Homo sapiens, UniProt Q9HBY8)
T24 construct: purchased Eurofins (KinaseProfiler)
T24 sequence (Q9HBY8 whole entry): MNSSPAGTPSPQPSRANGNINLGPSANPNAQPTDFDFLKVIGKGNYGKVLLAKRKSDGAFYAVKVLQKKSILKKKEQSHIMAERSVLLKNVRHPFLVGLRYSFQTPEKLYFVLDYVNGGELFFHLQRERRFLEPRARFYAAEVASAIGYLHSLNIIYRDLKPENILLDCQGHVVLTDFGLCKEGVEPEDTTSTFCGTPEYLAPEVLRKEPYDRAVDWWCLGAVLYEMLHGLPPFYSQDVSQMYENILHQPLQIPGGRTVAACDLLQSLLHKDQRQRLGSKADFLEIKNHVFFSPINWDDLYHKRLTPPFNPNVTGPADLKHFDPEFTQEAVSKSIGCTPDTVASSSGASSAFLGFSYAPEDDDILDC
Method in brief: as §1

CRIK(h) = target: T25, CRIK(h) (Homo sapiens, UniProt O14578)
T25 construct: purchased Eurofins (KinaseProfiler)
Method in brief: as §1

Plk3(h) = target: T26, Plk3(h) (Homo sapiens, UniProt Q9H4B4)
T26 construct: purchased Eurofins (KinaseProfiler)
Method in brief: as §1

CLIK1(h) = target: T27, CLIK1(h) (Homo sapiens, UniProt Q8TDR2)
T27 construct: purchased Eurofins (KinaseProfiler)
T27 sequence (Q8TDR2 whole entry): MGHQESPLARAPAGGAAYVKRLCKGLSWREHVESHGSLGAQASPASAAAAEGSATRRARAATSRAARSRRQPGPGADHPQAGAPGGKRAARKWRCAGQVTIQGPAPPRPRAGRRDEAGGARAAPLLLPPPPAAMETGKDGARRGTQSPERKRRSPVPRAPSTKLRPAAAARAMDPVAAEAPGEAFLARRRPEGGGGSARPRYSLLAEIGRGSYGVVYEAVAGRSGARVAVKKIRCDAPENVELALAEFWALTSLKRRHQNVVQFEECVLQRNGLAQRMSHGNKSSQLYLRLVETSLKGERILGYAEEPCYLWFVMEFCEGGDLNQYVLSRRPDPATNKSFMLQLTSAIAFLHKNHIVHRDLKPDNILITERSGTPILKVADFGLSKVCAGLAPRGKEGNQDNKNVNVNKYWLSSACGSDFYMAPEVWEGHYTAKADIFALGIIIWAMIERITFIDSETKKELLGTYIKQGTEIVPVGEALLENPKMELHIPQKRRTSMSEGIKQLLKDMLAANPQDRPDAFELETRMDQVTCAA
Method in brief: as §1

MLK1(h) = target: T28, MLK1(h) (Homo sapiens, UniProt P80192)
T28 construct: purchased Eurofins (KinaseProfiler)
Method in brief: as §1

DYRK1A(h) = target: T29, DYRK1A(h) (Homo sapiens, UniProt Q13627)
T29 construct: purchased Eurofins (KinaseProfiler)
Method in brief: as §1

CLK4(h) = target: T30, CLK4(h) (Homo sapiens, UniProt Q9HAZ1)
T30 construct: purchased Eurofins (KinaseProfiler)
Method in brief: as §1

Met(D1246H)(h) = target: T31, Met(D1246H)(h) (Homo sapiens, UniProt P08581, D1228H)
T31 construct: purchased Eurofins (KinaseProfiler)
T31 sequence (P08581 956-1390 D1228H limits assumed): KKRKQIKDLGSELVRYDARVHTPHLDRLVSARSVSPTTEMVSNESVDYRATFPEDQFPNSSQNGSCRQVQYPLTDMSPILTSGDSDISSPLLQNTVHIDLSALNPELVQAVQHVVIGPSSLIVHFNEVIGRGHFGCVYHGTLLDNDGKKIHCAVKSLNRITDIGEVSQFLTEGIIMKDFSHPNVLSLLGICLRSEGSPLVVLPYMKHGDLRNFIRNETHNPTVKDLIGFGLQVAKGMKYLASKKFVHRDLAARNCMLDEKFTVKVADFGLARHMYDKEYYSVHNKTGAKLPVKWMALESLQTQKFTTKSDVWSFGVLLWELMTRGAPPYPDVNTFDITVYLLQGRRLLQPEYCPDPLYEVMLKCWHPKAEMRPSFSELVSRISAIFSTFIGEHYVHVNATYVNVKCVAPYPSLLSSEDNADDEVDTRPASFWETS
Method in brief: as §1

PKCι(h) = target: T32, PKCι(h) (Homo sapiens, UniProt P41743)
T32 construct: purchased Eurofins (KinaseProfiler)
Method in brief: as §1

PDGFRα(h) = target: T33, PDGFRα(h) (Homo sapiens, UniProt P16234)
T33 construct: purchased Eurofins (KinaseProfiler)
Method in brief: as §1

TrkC(h) = target: T34, TrkC(h) (Homo sapiens, UniProt Q16288)
T34 construct: purchased Eurofins (KinaseProfiler)
Method in brief: as §1

CaMKIV(h) = target: T35, CaMKIV(h) (Homo sapiens, UniProt Q16566)
T35 construct: purchased Eurofins (KinaseProfiler)
Method in brief: as §1

mTOR(h) = target: T36, mTOR(h) (Homo sapiens, UniProt P42345)
T36 construct: purchased Eurofins (KinaseProfiler)
Method in brief: as §1

PRK1(h) = target: T37, PRK1(h) (Homo sapiens, UniProt Q16512)
T37 construct: purchased Eurofins (KinaseProfiler)
Method in brief: as §1

WNK3(h) = target: T38, WNK3(h) (Homo sapiens, UniProt Q9BYP7)
T38 construct: purchased Eurofins (KinaseProfiler)
Method in brief: as §1

Cc1cc(/C=C/C#N)cc(C)c1Nc1ccnc(Nc2ccc(C#N)cc2)n1 [rilpivirine, (E)-4-((4-((4-(2-cyanoethenyl)-2,6-dimethylphenyl)amino)pyrimidin-2-yl)amino)benzonitrile]
remaining activity at 1 µM (Fes(h)): 85%
remaining activity at 1 µM (DCAMKL1(h)): 91%
remaining activity at 1 µM (DAPK2(h)): 80%
remaining activity at 1 µM (c-RAF(h)): 91%
remaining activity at 1 µM (Flt3(h)): 123%
remaining activity at 1 µM (CDK1/cyclinB(h)): 105%
remaining activity at 1 µM (PKCε(h)): 89%
remaining activity at 1 µM (TSSK3(h)): 95%
remaining activity at 1 µM (Ret(V804M)(h)): 92%
remaining activity at 1 µM (GRK6(h)): 97%
remaining activity at 1 µM (Abl(T315I)(h)): 93%
remaining activity at 1 µM [1]: 104%
remaining activity at 1 µM [2]: 104%
remaining activity at 1 µM (TYK2(h)): 52%
remaining activity at 1 µM (CDKL4(h)): 74%
remaining activity at 1 µM (CDK16/cyclinY(h)): 96%
remaining activity at 1 µM (CLK2(h)): 60%
remaining activity at 1 µM (PDGFRβ(h)): 93%
remaining activity at 1 µM (ChaK1(h)): 94%
remaining activity at 1 µM (WNK4(h)): 113%
remaining activity at 1 µM (IKKε(h)): 82%
remaining activity at 1 µM (LOK(h)): 101%
remaining activity at 1 µM (DYRK1B(h)): 72%
remaining activity at 1 µM (SGK2(h)): 97%
remaining activity at 1 µM (CRIK(h)): 107%
remaining activity at 1 µM (Plk3(h)): 99%
remaining activity at 1 µM (CLIK1(h)): 85%
remaining activity at 1 µM (MLK1(h)): 81%
remaining activity at 1 µM (DYRK1A(h)): 56%
remaining activity at 1 µM (CLK4(h)): 37%
remaining activity at 1 µM (Met(D1246H)(h)): 95%
remaining activity at 1 µM (PKCι(h)): 99%
remaining activity at 1 µM (PDGFRα(h)): 96%
remaining activity at 1 µM (TrkC(h)): 91%
remaining activity at 1 µM (CaMKIV(h)): 81%
remaining activity at 1 µM (mTOR(h)): 97%
remaining activity at 1 µM (PRK1(h)): 64%
remaining activity at 1 µM (WNK3(h)): 83%
